The first assay relates to rhIFNγ stimulated STAT-3 phosphorylation in the A549 human epithelial cell line. In words: A549 Cell Assay: Inhibition of pSTAT3. Type of assay: cell-based. To be noted: A549 cells. The method, boiled down: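 Percent inhibition of STAT3 Tyr705 phosphorylation was measured by MSD immunoassay of cell lysates. A549 cells were given compound for 1 h at 37° C (final 0.3 nM to 10 μM, 0.1% DMSO, in 0.2% BSA DMEM), followed by 30 min of rhIFNγ stimulation at 20 ng/mL final. Unstimulated DMSO wells served as background.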
As usually defined, the IC50 is the concentration needed to halve the response being measured. Low values mean greater potency, high ones weaker potency. `CNC(=O)c1n[nH]c2nc(-c3cc(F)c(O)cc3CC(F)(F)F)nc(NCc3ccccc3N(C)S(C)(=O)=O)c12` [Example 94] displayed an IC50 of 126 nM.

Staying with this assay, now noted: Homo sapiens; A549 cells.
In the case of `CCN(c1ccc(Cl)cc1CNc1nc(-c2cc(F)c(O)cc2CC(F)(F)F)cc2[nH]nc(C(N)=O)c12)S(C)(=O)=O` [Example 84, 4-((5-chloro-2-(N-ethylmethylsulfonamido)benzyl)amino)-6-(5-fluoro-4-hydroxy-2-(2,2,2-trifluoroethyl)phenyl)-1H-pyrazolo[4,3-c]pyridine-3-carboxamide], half-maximal inhibition (IC50) required 32.9 nM.
On to `CCS(=O)(=O)N(C)c1ccccc1CNc1nc(-c2cc(F)c(O)cc2CC(F)(F)F)cc2[nH]nc(C(N)=O)c12` [Example 85, 6-(5-fluoro-4-hydroxy-2-(2,2,2-trifluoroethyl)phenyl)-4-((2-(N-methylethylsulfonamido)benzyl)amino)-1H-pyrazolo[4,3-c]pyridine-3-carboxamide], for which the IC50 is 12.9 nM. Compared with the last compound, the IC50 is about 2.6-fold lower.
The same measure, in the same setting: the result for `CCN(c1ncc(C)cc1CNc1nc(-c2cc(F)c(O)cc2CC(F)(F)F)cc2[nH]nc(C(N)=O)c12)S(C)(=O)=O` [Example 87, 4-[({2-[ethyl(methylsulfonyl)amino]-5-methylpyridin-3-yl}methyl)amino]-6-[5-fluoro-4-hydroxy-2-(2,2,2-trifluoroethyl)phenyl]-1H-pyrazolo[4,3-c]pyridine-3-carboxamide] reads 213 nM; that for `CN(c1ccc(F)cc1CNc1nc(-c2cc(F)c(O)cc2CC(F)(F)F)cc2[nH]nc(C(N)=O)c12)S(C)(=O)=O` [Example 88, 6-[5-fluoro-4-hydroxy-2-(2,2,2-trifluoroethyl)phenyl]-4-({5-fluoro-2-[methyl(methylsulfonyl)amino]benzyl}amino)-1H-pyrazolo[4,3-c]pyridine-3-carboxamide], 31.5 nM; that for `CN(c1ccc(Cl)cc1CNc1nc(-c2cc(F)c(O)cc2CC(F)(F)F)cc2[nH]nc(C(N)=O)c12)S(C)(=O)=O` [Example 89, 4-({5-chloro-2-[methyl(methylsulfonyl)amino]benzyl}amino)-6-[5-fluoro-4-hydroxy-2-(2,2,2-trifluoroethyl)phenyl]-1H-pyrazolo[4,3-c]pyridine-3-carboxamide], 46.3 nM.
On the same count and under the same terms, under `CCN(c1ccccc1CNc1nc(-c2cc(F)c(O)cc2CC(F)(F)F)cc2[nH]nc(C(N)=O)c12)S(C)(=O)=O` [Example 90, 4-({2-[ethyl(methylsulfonyl)amino]benzyl}amino)-6-[5-fluoro-4-hydroxy-2-(2,2,2-trifluoroethyl)phenyl]-1H-pyrazolo[4,3-c]pyridine-3-carboxamide] stands 30.4 nM; under `CCN(c1ccc(C)cc1CNc1nc(-c2cc(F)c(O)cc2CC(F)(F)F)cc2[nH]nc(C(N)=O)c12)S(C)(=O)=O` [Example 91, 4-({2-[ethyl(methylsulfonyl)amino]-5-methylbenzyl}amino)-6-[5-fluoro-4-hydroxy-2-(2,2,2-trifluoroethyl)phenyl]-1H-pyrazolo[4,3-c]pyridine-3-carboxamide], 26.3 nM; under `CCc1cc(O)c(F)cc1-c1nc(NCc2ccccc2N(C)S(=O)(=O)c2ccccc2)c2c(C(N)=O)n[nH]c2n1` [Example 95, 6-(2-Ethyl-5-fluoro-4-hydroxyphenyl)-4-((2-(N-methylphenylsulfonamido)benzyl)amino)-1H-pyrazolo[3,4-d]pyrimidine-3-carboxamide], 59.9 nM.
As for `CN(c1ccccc1CNc1nc(-c2cc(F)c(O)cc2CC(F)(F)F)nc2[nH]nc(C(N)=O)c12)S(=O)(=O)c1ccccc1` [Example 96, 6-(5-Fluoro-4-hydroxy-2-(2,2,2-trifluoroethyl)phenyl)-4-((2-(N-methylphenylsulfonamido)benzyl)amino)-1H-pyrazolo[3,4-d]pyrimidine-3-carboxamide], the IC50 is 2870 nM.
The same measure, in the same setting: the result for `CN(c1ccc(O)cc1CNc1nc(-c2cc(F)c(O)cc2CC(F)(F)F)nc2[nH]nc(C(=O)Nc3ccc(NCCO)nc3)c12)S(C)(=O)=O` [Example 99, 6-(5-Fluoro-4-hydroxy-2-(2,2,2-trifluoroethyl)phenyl)-4-((5-hydroxy-2-(N-methylmethylsulfonamido)benzyl)amino)-N-(6-((2-hydroxyethyl)amino)pyridin-3-yl)-1H-pyrazolo[3,4-d]pyrimidine-3-carboxamide] reads 2470 nM; that for `CS(=O)(=O)N(CCO)c1ccccc1CNc1nc(-c2cc(F)c(O)cc2CC(F)(F)F)nc2[nH]nc(C(N)=O)c12` [Example 101, 6-(5-fluoro-4-hydroxy-2-(2,2,2-trifluoroethyl)phenyl)-4-((2-(N-(2-hydroxyethyl)methyl-sulfonamido)benzyl)amino)-1H-pyrazolo[3,4-d]pyrimidine-3-carboxamide], above 10000 nM.
Still for that read-out and setting: under `CCN(c1ccccc1CNc1nc(-c2cc(F)c(O)cc2CC(F)(F)F)nc2[nH]nc(C(=O)NC)c12)S(C)(=O)=O` [Example 103, 4-((2-(N-ethylmethylsulfonamido)benzyl)amino)-6-(5-fluoro-4-hydroxy-2-(2,2,2-trifluoroethyl)-phenyl)-N-methyl-1H-pyrazolo[3,4-d]pyrimidine-3-carboxamide] stands 235 nM; under `CNC(=O)c1n[nH]c2nc(-c3cc(F)c(O)cc3CC(F)(F)F)nc(NCc3cc(F)ccc3N(C)S(C)(=O)=O)c12` [Example 104, 4-((5-fluoro-2-(N-methylmethylsulfonamido)benzyl)amino)-6-(5-fluoro-4-hydroxy-2-(2,2,2-trifluoroethyl)phenyl)-N-methyl-1H-pyrazolo[3,4-d]pyrimidine-3-carboxamide], 292 nM; under `CNC(=O)c1n[nH]c2nc(-c3cc(F)c(O)cc3CC(F)(F)F)nc(NCc3cc(O)ccc3N(C)S(=O)(=O)c3ccccc3)c12` [Example 106, 4-((2-(N-Methylphenylsulfonamido)-5-hydroxybenzyl)amino)-6-(5-fluoro-4-hydroxy-2-(2,2,2-trifluoroethyl)phenyl)-N-methyl-1H-pyrazolo[3,4-d]pyrimidine-3-carboxamide], 2520 nM.
Still for that read-out and setting: the result for `CCN(c1ccc(O)cc1CNc1nc(-c2cc(F)c(O)cc2CC(F)(F)F)nc2[nH]nc(C(N)=O)c12)S(=O)(=O)c1ccccc1` [Example 107, 4-((2-(N-ethylphenylsulfonamido)-5-hydroxybenzyl)amino)-6-(5-fluoro-4-hydroxy-2-(2,2,2-trifluoroethyl)phenyl)-1H-pyrazolo[3,4-d]pyrimidine-3-carboxamide] reads 899 nM.
As for `CN(c1ccc(O)cc1CNc1nc(-c2cc(F)c(O)cc2CC(F)(F)F)nc2[nH]nc(C(N)=O)c12)S(=O)(=O)c1ccccc1` [Example 108, 4-((2-(N-methylphenylsulfonamido)-5-hydroxybenzyl)amino)-6-(5-fluoro-4-hydroxy-2-(2,2,2-trifluoroethyl)phenyl)-1H-pyrazolo[3,4-d]pyrimidine-3-carboxamide], inhibition was half-maximal at 1500 nM (IC50).
The compound `CNC(=O)c1n[nH]c2nc(-c3cc(F)c(O)cc3CC(F)(F)F)nc(NCc3ccccc3N(C)S(=O)(=O)NC)c12` [Example 110, 6-(5-Fluoro-4-hydroxy-2-(2,2,2-trifluoroethyl)phenyl)-N-methyl-4-((2-(methyl(N-methylsulfamoyl)amino)benzyl)amino)-1H-pyrazolo[3,4-d]pyrimidine-3-carboxamide] yielded an IC50 above 10000 nM.

For the origin of these results see patent publication US10022376B2 (Pfizer Inc., priority 2014, dated 2018).
